Reference: US20240254077A1, “METHODS OF TREATING CHRONIC OBSTRUCTIVE PULMONARY DISEASE INCLUDING COMPOUNDS USEFUL THEREIN” (The Trustees of Columbia University in the City of New York, priority 2021, published 2024)
“Also recorded” adds a separate entry of the source. Where two headings read alike, the source gives them in different places.

Legend:
MMP1 promoter = MMP1 promoter luciferase reporter screen in CSE-treated transfected HEK 293T cells; type: cell-based, human; conditions: NIH clinical collection screen
Protocol: (§1) These molecules were tested for their capacity to modulate MMP-1 smoke induced transcriptional activation. […] As such, we next exposed human small airway epithelial cells to cigarette smoke extract followed by treatment with fluoxetine.

smoke exposed rabbits = conditions: cigarette smoke 16 weeks, oral; for mean linear intercept (morphometric analysis): versus smoke alone
Excerpt: (C) Representative H&E stains for each treatment group.
As the next step, we observed the ability of oral duloxetine to inhibit cigarette smoke induced up-regulation of MMP1 and lung destruction in a rabbit model. Rabbits were utilized for these experiments since unlike mice they produce MMP-1. Rabbits were exposed to cigarette smoke for 16 weeks while receiving placebo or orally administered duloxetine.
To assess the effects of SSRIs on the cigarette smoke induced inflammatory response, we utilized smoke-exposed mice.

MMP1 = MMP1 concentration, fluoxetine derivatives on SAEC (FIG. 6); type: cell-based, human
Excerpt: FIG. 6: MMP1 activity—fluoexetine derivatives on SAEC. Comparison of Derivatives 1-6 on MMP1 concentration.

IL-8 = IL-8 expression in CSE treated SAEC, dose response; type: cell-based, human; conditions: 5% CSE, varying doses
MMP-1 = MMP-1 expression and secretion in CSE exposed small airway epithelial cell (SAEC) cultures; type: cell-based, human; conditions: for MMP1 expression / MMP1 induction: SAEC, 5% CSE, varying doses (dose response)
Protocol: FIG. 2: Fluoxetine inhibits MMP-1 production and TLR-4 signaling in CSE exposed SAEC cultures.
(A) Fluoxetine. (B) Derivative 2. (C) Derviative 5. SAEC cultures were treated with 5% CSE and varying doses of Fluoxetine, Derivative 2 and Derivative 5, respectively. Treatment with the derivatives decreased MMP1 induction after cigarette smoke treatment.
The compounds in this clinical set have all been tested and utilized in humans for various indications. These molecules were tested for their capacity to modulate MMP-1 smoke induced transcriptional activation. […] Prior work in our lab was critical in establishing MMP-1 as a destructive agent in the progression of COPD in humans. As such, we next exposed human small airway epithelial cells to cigarette smoke extract followed by treatment with fluoxetine.
Aim 1b: Determining if potential CL(s) maintain their ability to inactivate MMP1 transcription and inflammatory pathways via inhibition of TLR4 signaling in human small airway epithelial cells. For each positive hit and fluoxetine, the DRC is used to derive their respective IC50's and Hill slopes. The concentration required to achieve a 50%, 75% and 99.9% fractional effect is calculated using the formula: [Cf]=[(fraction/100-fraction) ^(1/Hill slope)]IC50. The effect of each calculated concentration on cell viability is tested in triplicate on primary human small airway epithelial cell (hSAEC) culture via MTT assay. […] The chosen concentrations are tested on SAEC cultures exposed to 5% cigarette smoke extract for 24 h to assess their effects on MMP1 and TLR4 expression via mRNA extraction to analyze transcript levels by real-time RT-PCR. Culture media is collected and MMP1 secretion assessed by ELISA (R&D Systems, MN). Protein collected for western blot is used to assess IRAK phosphorylation, a known downstream effector of TLR4 activity. In addition, PCR arrays (ThermoFisher, MA) that measure the expression of cytokines that have been implicated in the pathogenesis of COPD, their receptors and the expression of transcription factors that regulate the cellular response to oxidants and CSE exposure are used to determine the ability of each derivative to suppress inflammatory signaling in smoke exposed cells.
SAEC cultures were treated with 5% CSE and varying doses of Fluoxetine, Derivative 2 and Derivative 5, respectively. Treatment with the derivatives decreased MMP1 induction after cigarette smoke treatment.

smoke exposed mice = assay: Cigarette smoke exposed mice, inflammatory BALF cell counts; type: in vivo, mouse; conditions: cigarette smoke 10 days, oral
Excerpt: FIG. 4: Oral fluoxetine treatment in smoke exposed mice reduces inflammatory BALF cell counts. […] (B) Representative cytospin DifQuik stains for each experimental group.

TLR-4 = TLR-4 signaling (TLR-4 expression, phospho-IRAK) in CSE exposed SAEC cultures; type: cell-based, human
Protocol: as §1
For each positive hit and fluoxetine, the DRC is used to derive their respective IC50's and Hill slopes. The concentration required to achieve a 50%, 75% and 99.9% fractional effect is calculated using the formula: [Cf]=[(fraction/100-fraction) ^(1/Hill slope)]IC50. The effect of each calculated concentration on cell viability is tested in triplicate on primary human small airway epithelial cell (hSAEC) culture via MTT assay. […] The chosen concentrations are tested on SAEC cultures exposed to 5% cigarette smoke extract for 24 h to assess their effects on MMP1 and TLR4 expression via mRNA extraction to analyze transcript levels by real-time RT-PCR. Culture media is collected and MMP1 secretion assessed by ELISA (R&D Systems, MN). Protein collected for western blot is used to assess IRAK phosphorylation, a known downstream effector of TLR4 activity.

For `CNCC[C@H](Oc1cccc2ccccc12)c1cccs1` [Duloxetine], the “inhibition of cigarette smoke induced MMP-1 production (MMP-1 smoke induced transcriptional activation)” value (MMP1 promoter) was “potent inhibitors”, the “MMP1 in bronchoalveolar lavage fluid (ELISA)” value (smoke exposed rabbits) was “decreases MMP1 present in the BALF” and the “MMP1 in bronchoalveolar lavage fluid (ELISA)” value (smoke exposed rabbits; listed as duloxetine) was “reduced MMP1 levels”. The “mean linear intercept (morphometric analysis)” value (smoke exposed rabbits) was “significantly reduced mean linear intercept” and the “mean linear intercept (morphometric analysis)” value (smoke exposed rabbits; listed as duloxetine) was “decreased mean linear intercepts”.

With `CCNC(=S)N(C)CCC(Oc1ccc(C(F)(F)F)cc1)c1ccccc1` (stereo not shown) [Derivative 3, 3-ethyl-1-methyl-1-(3-phenyl-3-(4-(trifluoromethyl)phenoxy)propyl)thiourea] the MMP1 concentration (MMP1; 2 μM) was “did not show any reduction of MMP1”, the MMP1 concentration (MMP1; 5 μM) was “did not show any reduction of MMP1” and the MMP1 concentration (MMP1; 10 μM) was “significant reduction of MMP1”.

`CCC(=O)N(C)CCC(Oc1ccc(C(F)(F)F)cc1)c1ccccc1` (stereo not shown) [Derivative 4, N-methyl-N-(3-phenyl-3-(4-(trifluoromethyl)phenoxy)propyl)propionamide] was tested, and the MMP1 concentration (MMP1; 2 μM) was “did not show any reduction of MMP1”, the MMP1 concentration (MMP1; 5 μM) was “did not show any reduction of MMP1” and the MMP1 concentration (MMP1; 10 μM) was “did not show any reduction of MMP1”.

For `CN(CCC(Oc1ccc(C(F)(F)F)cc1)c1ccccc1)S(C)(=O)=O` (stereo not shown) [Derivative 6, N-methyl-N-(3-phenyl-3-(4-(trifluoromethyl)phenoxy)propyl)methanesulfonamide], the MMP1 concentration (MMP1; 5 μM) was “significantly decreasd MMP1 concentrations” and the MMP1 concentration (MMP1; 10 μM) was “significantly decreasd MMP1 concentrations”.

With `CCCCN(C)CCC(Oc1ccc(C(F)(F)F)cc1)c1ccccc1` (stereo not shown) [Derivative 1, N-methyl-N-(3-phenyl-3-(4-(trifluoromethyl)phenoxy)propyl)butan-1-amine] the MMP1 concentration (MMP1; 5 μM) was “significantly decreasd MMP1 concentrations” and the MMP1 concentration (MMP1; 10 μM) was “significantly decreasd MMP1 concentrations”.

`Cc1ccc(S(=O)(=O)N(C)CCC(Oc2ccc(C(F)(F)F)cc2)c2ccccc2)cc1` (stereo not shown) [Derivative 5, N,4-dimethyl-N-(3-phenyl-3-(4-(trifluoromethyl)phenoxy)propyl)benzenesulfonamide] was tested, and the IL-8 expression (IL-8) was “reduces IL-8 expression”, the “MMP1 expression / MMP1 induction” value (MMP-1) was “reduces MMP1 expression” and the MMP1 concentration (MMP1; 5 μM) was “significantly decreasd MMP1 concentrations”. The MMP1 concentration (MMP1; 10 μM) was “significantly decreasd MMP1 concentrations”.

In the case of `CCNC(=O)N(C)CCC(Oc1ccc(C(F)(F)F)cc1)c1ccccc1` (stereo not shown) [Derivative 2, 3-ethyl-1-methyl-1-(3-phenyl-3-(4-(trifluoromethyl)phenoxy)propyl)urea], the IL-8 expression (IL-8) was “reduces IL-8 expression”, the “MMP1 expression / MMP1 induction” value (MMP-1) was “reduces MMP1 expression” and the MMP1 concentration (MMP1; 5 μM) was “significantly decreasd MMP1 concentrations”. For the same compound, the MMP1 concentration (MMP1; 10 μM) was “significantly decreasd MMP1 concentrations”.

In the case of `CNCCC(Oc1ccc(C(F)(F)F)cc1)c1ccccc1` (stereo not shown) [Fluoxetine], the “inflammatory cell counts in lung lavage fluid (BALF)” value (smoke exposed mice) was “decreases the cell count”, the “inflammatory cell counts in lung lavage fluid (BALF)” value (smoke exposed mice; listed as fluoxetine) was “decreased inflammatory cell counts” and the TLR-4 expression (TLR-4) was “decreased expression; also recorded: abrogates the CSE induced increase in TLR-4 expression”. For the same compound, the “phospho-IRAK (downstream effector of TLR-4)” value (TLR-4) was “decreased expression; also recorded: abrogates”, the “inhibition of cigarette smoke induced MMP-1 production (MMP-1 smoke induced transcriptional activation)” value (MMP1 promoter) was “potent inhibitors” and the “MMP1 present in the media (secretion)” value (MMP-1; 5% CSE exposed SAEC cultures) was “decreased MMP-1 expression and secretion; also recorded: decreases MMP1 present in the media”. For the same compound, the “expression of MMP1 transcript (PCR)” value (MMP-1; 5% CSE exposed SAEC cultures) was “decreased MMP-1 expression” and the “expression of MMP1 transcript (PCR)” value (MMP-1; 5% CSE exposed SAEC cultures, listed as fluoxetine) was “inhibits expression of MMP1 transcript”.
